{
  "source": "PubChem BioAssay (NCI)",
  "assay_in_all_cases": "inhibition of tumour cell growth, NCI panel, 48 h",
  "key": {"UACC-62 melanoma": {"test_system": "UACC-62 melanoma"}, "EKVX NSCLC": {"test_system": "EKVX NSCLC"}, "SN12C renal": {"test_system": "SN12C renal"}, "BT-549 breast": {"test_system": "BT-549 breast"}, "SK-OV-3 ovarian": {"test_system": "SK-OV-3 ovarian"}, "SK-MEL-2 melanoma": {"test_system": "SK-MEL-2 melanoma"}, "MDA-MB-231 breast": {"test_system": "MDA-MB-231 breast"}, "UO-31 renal": {"test_system": "UO-31 renal"}, "A549 NSCLC": {"test_system": "A549 NSCLC"}, "KM12 colon": {"test_system": "KM12 colon"}, "NCI-H460 lung": {"test_system": "NCI-H460 lung"}, "SW-620 colon": {"test_system": "SW-620 colon"}, "DU-145 prostate": {"test_system": "DU-145 prostate"}, "HCC-2998 colon": {"test_system": "HCC-2998 colon"}, "SF-295 CNS": {"test_system": "SF-295 CNS"}, "RPMI-8226 leukemia": {"test_system": "RPMI-8226 leukemia"}, "U251 CNS": {"test_system": "U251 CNS"}, "SF-539 CNS": {"test_system": "SF-539 CNS"}, "OVCAR-8 ovarian": {"test_system": "OVCAR-8 ovarian"}, "HOP-92 NSCLC": {"test_system": "HOP-92 NSCLC"}, "HCT-15 colon": {"test_system": "HCT-15 colon"}, "SF-268 CNS": {"test_system": "SF-268 CNS"}, "ACHN renal": {"test_system": "ACHN renal"}, "PC-3 prostate": {"test_system": "PC-3 prostate"}, "HCT-116 colon": {"test_system": "HCT-116 colon"}, "MALME-3M melanoma": {"test_system": "MALME-3M melanoma"}, "RXF 393 renal": {"test_system": "RXF 393 renal"}},
  "note": "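The compound was tested at five concentrations on cells cultured in 96-well plates, with a 48-hour exposure period. Abbreviation: GI50, concentration required for 50% inhibition of growth. TGI is the concentration that stops growth completely.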",
  "data": [
    {"smiles": "COc1ccc(N2CCN(C3=C(Cl)C(=O)c4ncccc4C3=O)CC2)cc1", "values": [
      {"measurement": "GI50", "setting": "UACC-62 melanoma", "value": 5.99, "unit": "µM"},
      {"measurement": "TGI", "setting": "UACC-62 melanoma", "value": 19.3, "unit": "µM"},
      {"measurement": "GI50", "setting": "EKVX NSCLC", "value": 2.45, "unit": "µM"},
      {"measurement": "TGI", "setting": "EKVX NSCLC", "value": 7.05, "unit": "µM"},
      {"measurement": "GI50", "setting": "SN12C renal", "value": 11.1, "unit": "µM"},
      {"measurement": "TGI", "setting": "SN12C renal", "value": 25.6, "unit": "µM"},
      {"measurement": "GI50", "setting": "BT-549 breast", "value": 4.23, "unit": "µM"},
      {"measurement": "TGI", "setting": "BT-549 breast", "value": 14.1, "unit": "µM"},
      {"measurement": "GI50", "setting": "SK-OV-3 ovarian", "value": 12.2, "unit": "µM"},
      {"measurement": "TGI", "setting": "SK-OV-3 ovarian", "value": 25.2, "unit": "µM"},
      {"measurement": "GI50", "setting": "SK-MEL-2 melanoma", "value": 12, "unit": "µM"},
      {"measurement": "TGI", "setting": "SK-MEL-2 melanoma", "value": 25.4, "unit": "µM"},
      {"measurement": "GI50", "setting": "MDA-MB-231 breast", "value": 1.66, "unit": "µM"},
      {"measurement": "TGI", "setting": "MDA-MB-231 breast", "value": 3.26, "unit": "µM"},
      {"measurement": "GI50", "setting": "UO-31 renal", "value": 2, "unit": "µM"},
      {"measurement": "TGI", "setting": "UO-31 renal", "value": 6.83, "unit": "µM"},
      {"measurement": "GI50", "setting": "A549 NSCLC", "value": 15.9, "unit": "µM"},
      {"measurement": "TGI", "setting": "A549 NSCLC", "value": 35.2, "unit": "µM"},
      {"measurement": "GI50", "setting": "KM12 colon", "value": 18.4, "unit": "µM"},
      {"measurement": "TGI", "setting": "KM12 colon", "value": 34.7, "unit": "µM"},
      {"measurement": "GI50", "setting": "NCI-H460 lung", "value": 5.86, "unit": "µM"},
      {"measurement": "TGI", "setting": "NCI-H460 lung", "value": 19.9, "unit": "µM"},
      {"measurement": "GI50", "setting": "SW-620 colon", "value": 1.63, "unit": "µM"},
      {"measurement": "TGI", "setting": "SW-620 colon", "value": 3.79, "unit": "µM"},
      {"measurement": "GI50", "setting": "DU-145 prostate", "value": 5.93, "unit": "µM"},
      {"measurement": "TGI", "setting": "DU-145 prostate", "value": 18.4, "unit": "µM"},
      {"measurement": "GI50", "setting": "HCC-2998 colon", "value": 11.7, "unit": "µM"},
      {"measurement": "TGI", "setting": "HCC-2998 colon", "value": 26.5, "unit": "µM"},
      {"measurement": "GI50", "setting": "SF-295 CNS", "value": 13.9, "unit": "µM"},
      {"measurement": "TGI", "setting": "SF-295 CNS", "value": 28.3, "unit": "µM"},
      {"measurement": "GI50", "setting": "RPMI-8226 leukemia", "value": 2.69, "unit": "µM"},
      {"measurement": "TGI", "setting": "RPMI-8226 leukemia", "value": 7.32, "unit": "µM"},
      {"measurement": "GI50", "setting": "U251 CNS", "value": 10.7, "unit": "µM"},
      {"measurement": "TGI", "setting": "U251 CNS", "value": 24.1, "unit": "µM"},
      {"measurement": "GI50", "setting": "SF-539 CNS", "value": 7.66, "unit": "µM"},
      {"measurement": "TGI", "setting": "SF-539 CNS", "value": 21.2, "unit": "µM"},
      {"measurement": "GI50", "setting": "OVCAR-8 ovarian", "value": 4.87, "unit": "µM"},
      {"measurement": "TGI", "setting": "OVCAR-8 ovarian", "value": 17.9, "unit": "µM"},
      {"measurement": "GI50", "setting": "HOP-92 NSCLC", "value": 1.49, "unit": "µM"},
      {"measurement": "TGI", "setting": "HOP-92 NSCLC", "value": 3.03, "unit": "µM"},
      {"measurement": "GI50", "setting": "HCT-15 colon", "value": 2.66, "unit": "µM"},
      {"measurement": "TGI", "setting": "HCT-15 colon", "value": 11.3, "unit": "µM"},
      {"measurement": "GI50", "setting": "SF-268 CNS", "value": 19.2, "unit": "µM"},
      {"measurement": "TGI", "setting": "SF-268 CNS", "value": 50.1, "unit": "µM"},
      {"measurement": "GI50", "setting": "ACHN renal", "value": 1.78, "unit": "µM"},
      {"measurement": "TGI", "setting": "ACHN renal", "value": 3.37, "unit": "µM"},
      {"measurement": "GI50", "setting": "PC-3 prostate", "value": 13.8, "unit": "µM"},
      {"measurement": "TGI", "setting": "PC-3 prostate", "value": 29.1, "unit": "µM"},
      {"measurement": "GI50", "setting": "HCT-116 colon", "value": 1.92, "unit": "µM"},
      {"measurement": "TGI", "setting": "HCT-116 colon", "value": 3.85, "unit": "µM"},
      {"measurement": "GI50", "setting": "MALME-3M melanoma", "value": 2.06, "unit": "µM"},
      {"measurement": "TGI", "setting": "MALME-3M melanoma", "value": 6.05, "unit": "µM"},
      {"measurement": "GI50", "setting": "RXF 393 renal", "value": 2.61, "unit": "µM"}
    ]}
  ]
}
